We go through one compound from patent US3937612A, “Dialkylphosphonoacetylurea compounds and processes for preparation and use for flameproofing” (priority 1974, dated 1976).

Molecules are shown by their SMILES.

This data set can be described thus: Water solubility (stated in words). The format is physicochemical. The procedure:
While stirring, 682 gm (5 mol) of chloroacetylurea were added portionwise to 831 gm (5 mol) of triethyl phosphite at a temperature of 135°C to 150°C. Each time, the addition of the next portion was delayed until the violent gas evolution had abated. After the last portion of chloracetylurea had been added, the stirring was continued at 150°Cuntil the evolution of gas was terminated. Small quantities of a volatile substance distilled off when the reaction mixture was heated on the water bath under the vacuum generated by an oil pump. The reaction mixture solidified upon cooling. […] The yield of crude product was 1120 gm (94% of the theory).

Consider `CCOP(=O)(CC(=O)NC(N)=O)OCC` [diethylphosphonoacetylurea, Diethylphosphonoacetylurea], for which the water solubility entry is reported as “water-soluble”.
